Source: ChEMBL document CHEMBL1201862, “PubChem BioAssay data set” (2004)
Active and inactive are the calls of the source.

Tests used:
[1] = target: Nuclear receptor subfamily 5 group A member 2 (Homo sapiens, UniProt O00482); format: functional, cell-based;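 also: HEK293T cells transfected with LRH-1 and a StAR promoter luciferase reporter; potency for inhibitors that lower LRH-1 driven reporter light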
[2] = nonselective StAR promoter luciferase inhibitors – cell-based, luminescence, luciferase reporter, counter-screen for LRH-1 inverse agonist project, dose response (AID 651969); format: functional
Steroidogenic factor 1 = Steroidogenic factor 1 (Homo sapiens, UniProt Q13285); experiment: Counterscreen for inverse agonists of the liver receptor homolog-1 (LRH-1; NR5A2): Luminescence-based cell-based high throughput dose response assay to identify inverse agonists of the Steroidogenic Factor 1 Nuclear Receptor (SF1; NR5A1).; format: functional
[3] = target: T1, DNA repair and recombination protein RAD54-like (Homo sapiens, UniProt Q92698); experiment: RAD54 Holliday junction migration blockers – biochemical, fluorescence, cherry-picked samples, dose series, confirmation (AID 651657); format: functional
T1 sequence (Q92698 whole entry): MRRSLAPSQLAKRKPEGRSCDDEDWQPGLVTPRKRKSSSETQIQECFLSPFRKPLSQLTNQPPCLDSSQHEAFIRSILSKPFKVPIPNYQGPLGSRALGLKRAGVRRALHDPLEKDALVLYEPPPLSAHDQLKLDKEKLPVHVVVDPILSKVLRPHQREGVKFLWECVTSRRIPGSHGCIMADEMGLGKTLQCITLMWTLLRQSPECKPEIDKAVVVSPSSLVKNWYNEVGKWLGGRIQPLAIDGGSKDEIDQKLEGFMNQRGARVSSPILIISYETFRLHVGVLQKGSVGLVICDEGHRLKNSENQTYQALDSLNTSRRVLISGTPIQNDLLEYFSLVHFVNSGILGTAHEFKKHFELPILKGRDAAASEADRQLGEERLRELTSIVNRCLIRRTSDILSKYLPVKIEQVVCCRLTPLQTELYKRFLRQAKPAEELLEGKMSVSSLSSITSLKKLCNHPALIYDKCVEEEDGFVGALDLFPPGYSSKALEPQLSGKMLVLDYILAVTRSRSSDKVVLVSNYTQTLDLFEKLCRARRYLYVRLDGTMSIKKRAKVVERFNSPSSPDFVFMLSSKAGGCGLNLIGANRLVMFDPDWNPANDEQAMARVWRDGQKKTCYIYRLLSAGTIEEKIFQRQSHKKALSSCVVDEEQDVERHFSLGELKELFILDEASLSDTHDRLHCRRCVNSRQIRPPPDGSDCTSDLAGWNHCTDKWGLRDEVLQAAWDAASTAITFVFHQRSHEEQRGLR

[4] = target: T2, Rac GTPase-activating protein 1 (Homo sapiens, UniProt Q9H0H5); experiment: blockers of MgcRacGAP-driven Rac1 GTP hydrolysis – biochemical, ADP Hunter fluorescence, primary and confirmatory, confirmation (AID 624330); format: functional
T2 sequence (Q9H0H5 whole entry): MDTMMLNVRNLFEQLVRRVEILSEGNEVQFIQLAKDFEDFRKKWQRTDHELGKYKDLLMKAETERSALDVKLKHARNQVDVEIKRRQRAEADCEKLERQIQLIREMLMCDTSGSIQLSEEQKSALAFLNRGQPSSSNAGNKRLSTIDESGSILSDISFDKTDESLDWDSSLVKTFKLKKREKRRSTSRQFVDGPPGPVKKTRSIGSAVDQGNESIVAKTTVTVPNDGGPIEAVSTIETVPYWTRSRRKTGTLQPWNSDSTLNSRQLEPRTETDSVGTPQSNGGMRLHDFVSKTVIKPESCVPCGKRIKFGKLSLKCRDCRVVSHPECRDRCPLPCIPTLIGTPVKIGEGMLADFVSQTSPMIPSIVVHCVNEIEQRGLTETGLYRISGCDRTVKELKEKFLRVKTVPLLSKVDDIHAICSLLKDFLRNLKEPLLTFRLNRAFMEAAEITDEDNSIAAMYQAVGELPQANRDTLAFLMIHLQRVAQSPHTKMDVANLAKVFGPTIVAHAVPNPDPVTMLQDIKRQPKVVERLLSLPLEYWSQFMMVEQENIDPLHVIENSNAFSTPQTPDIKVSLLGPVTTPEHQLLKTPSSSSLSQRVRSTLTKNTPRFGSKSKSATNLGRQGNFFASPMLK

[5] = viability loss in HeLa cells – cytotoxicity control for MgcRacGAP inhibitor project, dose response (AID 624300); format: functional
[6] = target: T3, DNA repair protein RAD52 homolog (Homo sapiens, UniProt P43351); format: functional, biochemical
T3 sequence (P43351 whole entry): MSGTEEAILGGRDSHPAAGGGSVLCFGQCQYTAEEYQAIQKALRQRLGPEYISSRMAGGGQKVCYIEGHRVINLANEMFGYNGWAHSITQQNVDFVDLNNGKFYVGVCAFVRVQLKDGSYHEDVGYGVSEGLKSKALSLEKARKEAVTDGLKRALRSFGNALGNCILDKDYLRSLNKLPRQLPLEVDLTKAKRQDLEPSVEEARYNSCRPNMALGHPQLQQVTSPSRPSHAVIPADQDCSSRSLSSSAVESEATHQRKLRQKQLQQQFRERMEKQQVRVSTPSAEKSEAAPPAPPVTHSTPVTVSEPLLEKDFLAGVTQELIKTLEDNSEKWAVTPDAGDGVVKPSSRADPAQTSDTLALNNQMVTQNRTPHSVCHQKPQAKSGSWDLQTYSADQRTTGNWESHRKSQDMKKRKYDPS

[7] = activation of miR-122 Renilla sensor silencing – cell-based, Huh7 psiCHECK-miR122, Renilla luciferase, cherry-picked, dose response (AID 651956); format: functional;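 also: huh7 hepatoma cells stably carrying a psiCHECK-2 miR-122 sensor plasmid; renilla luciferase signal reporting endogenous miR-122 activity after 48 h compound exposure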
[8] = NIH3T3 cell viability loss – ATP luminescence, mouse fibroblasts, counter-screen, dose response (AID 2010); format: functional, cell-based;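 also: cells exposed to compound for about 90 hours before reading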
[9] = Trypanosoma cruzi growth suppression in host cells – NIH3T3 host cells, beta-gal luminescence, confirmation (AID 2044); format: functional, cell-based;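 also: intracellular parasites grown in NIH/3T3 mouse fibroblasts as host cells; luminescent beta-galactosidase reporter signal from transgenic T. cruzi replicating inside host cells; inhibitors lower the luminescence signal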
[10] = alpha-synuclein stem-loop luciferase translation blockers – H4 neuroglioma cells, luminescence, confirmation (AID 1988); format: functional, cell-based
[11] = Luminescence Cell-Based Dose Response HTS to Identify Inhibitors of 5'UTR Stem-Loop Driven Prion Protein mRNA Translation in H4 Neuroglioblastoma Cells. [Related pubchem assays: 1827 (Project Summary), 1813 (Primary HTS)]; format: functional
[12] = general mammalian cell viability loss – inhibitor set, cherry-pick, set 2, cytotoxicity control for miR-122 modulator project, dose response (AID 720697); format: functional, cell-based
[13] = luciferase reporter signal suppression in cells – H4 neuroglioma cells, luminescence, dose response (AID 1990); format: functional, cell-based
[14] = target: T4, Tyrosine-protein phosphatase non-receptor type 11 (Homo sapiens, UniProt Q06124); experiment: PTPN11 enzyme inhibitors – biochemical, selectivity assay for STEP inhibitor project, dose response (AID 602367); format: functional; conditions: read-out: IC50_Mean
T4 sequence (Q06124 whole entry): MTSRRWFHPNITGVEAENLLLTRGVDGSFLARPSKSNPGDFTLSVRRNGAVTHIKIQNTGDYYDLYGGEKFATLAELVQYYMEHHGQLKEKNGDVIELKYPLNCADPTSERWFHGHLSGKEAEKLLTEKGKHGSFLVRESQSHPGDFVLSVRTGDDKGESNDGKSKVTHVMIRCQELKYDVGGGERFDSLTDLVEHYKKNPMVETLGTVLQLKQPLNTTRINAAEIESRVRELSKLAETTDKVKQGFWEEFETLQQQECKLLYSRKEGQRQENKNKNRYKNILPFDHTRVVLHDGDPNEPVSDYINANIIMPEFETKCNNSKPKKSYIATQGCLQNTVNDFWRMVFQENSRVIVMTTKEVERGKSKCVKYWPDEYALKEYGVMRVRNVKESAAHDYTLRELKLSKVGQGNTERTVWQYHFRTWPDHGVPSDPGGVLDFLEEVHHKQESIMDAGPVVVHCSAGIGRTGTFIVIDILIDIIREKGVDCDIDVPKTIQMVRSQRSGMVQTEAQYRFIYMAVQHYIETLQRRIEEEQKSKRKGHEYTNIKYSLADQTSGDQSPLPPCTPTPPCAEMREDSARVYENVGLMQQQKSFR

[15] = target: Dual specificity protein phosphatase 3 (Homo sapiens, UniProt P51452); experiment: VHR phosphatase inhibition, dose response, selectivity assay for STEP inhibitor project, biochemical (AID 602374); format: functional; conditions: read-out: IC50_Mean
[16] = target: Glucose-6-phosphate 1-dehydrogenase (Homo sapiens, UniProt P11413); experiment: inhibition of Homo sapiens G6PD, dose series – biochemical, fluorescence, selectivity assay for P. falciparum G6PD inhibitor project, dose response (AID 504792); format: functional
[17] = target: T5, Tyrosine-protein phosphatase non-receptor type 5 (Homo sapiens, UniProt P54829); experiment: PTPN5 enzyme inhibition – biochemical, fluorescence intensity, uHTS hits, confirmation (AID 602372); format: functional; conditions: read-out: IC50_Mean
T5 sequence (P54829 whole entry): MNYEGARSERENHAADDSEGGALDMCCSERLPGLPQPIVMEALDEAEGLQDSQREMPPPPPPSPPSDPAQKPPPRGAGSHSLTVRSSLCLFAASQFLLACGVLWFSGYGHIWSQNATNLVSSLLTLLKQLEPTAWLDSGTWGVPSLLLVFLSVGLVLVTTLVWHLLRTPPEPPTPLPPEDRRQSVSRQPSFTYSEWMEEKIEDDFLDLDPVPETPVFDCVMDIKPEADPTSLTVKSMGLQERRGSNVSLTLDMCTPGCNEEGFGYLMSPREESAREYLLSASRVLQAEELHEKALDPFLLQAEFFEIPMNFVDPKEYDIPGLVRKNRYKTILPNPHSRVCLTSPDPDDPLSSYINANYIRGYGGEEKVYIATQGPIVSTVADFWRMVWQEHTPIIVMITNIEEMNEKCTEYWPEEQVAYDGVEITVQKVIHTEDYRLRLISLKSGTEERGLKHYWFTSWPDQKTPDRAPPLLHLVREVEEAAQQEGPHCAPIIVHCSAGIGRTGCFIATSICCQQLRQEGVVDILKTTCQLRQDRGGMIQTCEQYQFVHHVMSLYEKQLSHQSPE

cells [18] = format: functional, cell-based
[19] = target: T6, Heat shock factor protein 1 (Mus musculus, UniProt P38532); experiment: enhancement of HSF1-driven luciferase signal – cell-based, NIH3T3, luminescence, dose retest, confirmation (AID 435004); format: functional;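 also: stress induced by proteasome inhibitor MG132 added 30 min after compound; luciferase reporter driven by HSF1 response element in NIH3T3 cells; actives raise luminescence as potentiators of the MG132 stress response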
T6 sequence (P38532 whole entry): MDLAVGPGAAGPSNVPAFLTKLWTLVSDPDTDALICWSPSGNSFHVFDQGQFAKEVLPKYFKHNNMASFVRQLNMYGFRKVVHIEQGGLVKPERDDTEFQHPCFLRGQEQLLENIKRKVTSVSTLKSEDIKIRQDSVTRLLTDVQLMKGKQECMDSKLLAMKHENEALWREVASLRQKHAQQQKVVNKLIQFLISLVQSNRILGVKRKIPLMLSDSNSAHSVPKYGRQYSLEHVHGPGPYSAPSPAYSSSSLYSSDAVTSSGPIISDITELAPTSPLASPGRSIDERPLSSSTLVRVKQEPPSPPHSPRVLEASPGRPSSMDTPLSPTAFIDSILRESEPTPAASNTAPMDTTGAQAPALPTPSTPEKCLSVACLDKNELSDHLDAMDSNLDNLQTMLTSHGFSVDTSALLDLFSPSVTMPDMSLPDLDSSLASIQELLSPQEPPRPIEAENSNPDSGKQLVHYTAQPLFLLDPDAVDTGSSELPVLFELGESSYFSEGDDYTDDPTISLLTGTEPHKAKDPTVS

cells [20] = format: functional, cell-based; remark: listed apart in the source

Steroidogenic factor 1, sequence (Q13285 whole entry): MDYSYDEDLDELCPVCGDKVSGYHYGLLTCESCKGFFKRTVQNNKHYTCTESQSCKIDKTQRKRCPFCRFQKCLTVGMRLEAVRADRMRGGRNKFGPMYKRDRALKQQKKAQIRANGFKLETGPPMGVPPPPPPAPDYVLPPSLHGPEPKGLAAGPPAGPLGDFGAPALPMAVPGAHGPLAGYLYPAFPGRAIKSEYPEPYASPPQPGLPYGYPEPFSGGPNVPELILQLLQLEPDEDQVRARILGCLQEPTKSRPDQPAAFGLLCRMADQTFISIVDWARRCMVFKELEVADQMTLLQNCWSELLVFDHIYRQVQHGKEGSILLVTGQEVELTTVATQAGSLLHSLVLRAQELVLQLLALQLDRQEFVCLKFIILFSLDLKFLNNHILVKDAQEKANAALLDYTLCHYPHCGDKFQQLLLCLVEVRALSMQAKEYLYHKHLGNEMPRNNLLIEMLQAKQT
Nuclear receptor subfamily 5 group A member 2, sequence (O00482 whole entry): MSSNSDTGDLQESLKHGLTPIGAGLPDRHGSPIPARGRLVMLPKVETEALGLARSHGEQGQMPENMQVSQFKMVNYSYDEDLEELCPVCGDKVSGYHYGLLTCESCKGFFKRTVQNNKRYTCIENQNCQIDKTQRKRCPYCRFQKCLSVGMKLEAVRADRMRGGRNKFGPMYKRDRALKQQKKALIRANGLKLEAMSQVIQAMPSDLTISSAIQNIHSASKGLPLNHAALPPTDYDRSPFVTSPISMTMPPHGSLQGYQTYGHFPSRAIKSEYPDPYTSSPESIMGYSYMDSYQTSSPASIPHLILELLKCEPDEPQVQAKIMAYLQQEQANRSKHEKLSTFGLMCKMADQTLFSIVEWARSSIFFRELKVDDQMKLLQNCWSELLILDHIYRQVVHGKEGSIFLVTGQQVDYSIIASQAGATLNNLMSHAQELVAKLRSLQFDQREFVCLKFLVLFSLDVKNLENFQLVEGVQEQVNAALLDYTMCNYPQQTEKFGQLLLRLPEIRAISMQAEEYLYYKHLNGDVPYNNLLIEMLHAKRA
Dual specificity protein phosphatase 3, sequence (P51452 whole entry): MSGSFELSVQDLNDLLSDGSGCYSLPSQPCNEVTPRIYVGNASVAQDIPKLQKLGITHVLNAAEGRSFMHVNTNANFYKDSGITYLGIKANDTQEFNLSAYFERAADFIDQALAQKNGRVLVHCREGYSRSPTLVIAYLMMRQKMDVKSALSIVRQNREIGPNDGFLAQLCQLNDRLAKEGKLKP
Glucose-6-phosphate 1-dehydrogenase, sequence (P11413 whole entry): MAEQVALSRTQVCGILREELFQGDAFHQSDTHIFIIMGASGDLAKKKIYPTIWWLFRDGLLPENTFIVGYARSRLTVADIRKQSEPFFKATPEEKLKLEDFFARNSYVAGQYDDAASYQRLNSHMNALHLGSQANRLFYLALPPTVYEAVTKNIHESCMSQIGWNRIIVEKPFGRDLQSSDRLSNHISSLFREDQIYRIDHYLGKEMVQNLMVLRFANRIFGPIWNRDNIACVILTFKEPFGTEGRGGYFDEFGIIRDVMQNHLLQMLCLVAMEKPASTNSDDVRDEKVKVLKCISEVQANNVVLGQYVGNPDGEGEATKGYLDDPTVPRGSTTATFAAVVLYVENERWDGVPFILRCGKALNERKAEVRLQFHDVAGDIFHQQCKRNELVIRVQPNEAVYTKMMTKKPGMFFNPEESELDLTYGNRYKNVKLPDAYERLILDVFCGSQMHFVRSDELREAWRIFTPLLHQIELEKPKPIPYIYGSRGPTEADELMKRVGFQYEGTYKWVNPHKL

SMILES: CCOc1ccc(NC(=O)CSc2nccn(-c3ccc4c(c3)OCCO4)c2=O)cc1
- IC50 [1]: 2.49 µM (active)
- IC50 [2]: 35.9 µM (inactive)
- IC50 (Steroidogenic factor 1): 2.46 µM (active)

SMILES: Cc1ccc2c(c1)c1nc3ccccc3nc1n2CCN1CCOCC1
- AC50 [3]: 16.6 µM (active)

SMILES: CC(C)N(CCNCC(O)COc1ccc(C(C)(C)c2ccccc2)cc1)C(C)C (centres undefined)
- IC50 [4]: 204 µM (active)
- CC50 [5]: 91.8 µM (active)

SMILES: CCn1c(=O)n(CC)c2cc(N3CCCC3)c(NC(=O)c3cccc(Cl)c3)cc21
- CC50 [5]: 100 µM (active)

SMILES: COc1ccc(OCC(O)CN2CCC(CN3C(=O)c4cccc5cccc(c45)C3=O)CC2)cc1 (centres undefined)
- AC50 [6]: 8.15 µM (active)

SMILES: C[C@@H]1CN([C@H](C)CO)C(=O)c2cc(-c3cncnc3)cnc2O[C@H]1CN(C)Cc1ccc(Oc2ccccc2)cc1
- AC50 [7]: 25.7 µM (active)

SMILES: OCCN1CCN(c2ncnc3sc(-c4ccccc4)cc23)CC1
- AC50 [3]: 24.8 µM (active)
- EC50 [8]: > 60 µM (not active)
- EC50 [9]: 0.721 µM (active)

SMILES: COc1ccc(C(O)(CC(C)C)C(CN2CCOCC2)c2ccccc2)cc1 (centres undefined)
- AC50 [7]: 49 µM (active)
- EC50 [10]: 10.2 µM (active)
- EC50 [11]: > 120 µM (not active)
- AC50 [12]: 4.58 µM (active)
- EC50 [13]: 10.6 µM (active)

SMILES: Cn1cc(Cl)c(C(=O)OCC(=O)Nc2ccc(S(N)(=O)=O)cc2)n1
- IC50 [1]: 0.45 µM (active)
- IC50 [2]: 35.9 µM (inactive)
- IC50 (Steroidogenic factor 1): 1.11 µM (active)

SMILES: Cc1cc(-c2ccccc2)nc(N/N=C/c2ccc(O)cc2)n1
- IC50 [4]: 18.2 µM (active)
- CC50 [5]: 87 µM (active)

SMILES: CCN1CCN(c2nc(Nc3ccc(NC(C)=O)cc3)nc(Nc3ccc(NC(C)=O)cc3)n2)CC1
- AC50 [6]: 6.27 µM (active)

SMILES: CN1CCN(C(=S)c2ccc(Br)cc2)CC1
- IC50 [14]: 1.51 µM (active)
- IC50 [15]: 1.14 µM (active)
- IC50 [16]: > 80 µM (inactive)
- IC50 [17]: 30.8 µM (inactive)

SMILES: O=C1CCCN2N=C(SCC(=O)Nc3ccc(Br)cc3)SC2=N1
- EC50 (cells [18]): > 350 µM (not active)
- IC50 [1]: 71.6 µM (inactive)
- EC50 [19]: > 260 µM (inactive)
- EC50 (cells [20]): > 350 µM (not active)
- IC50 [2]: 35.9 µM (inactive)
- IC50 (Steroidogenic factor 1): 12 µM (inactive)

SMILES: CCN(CC)CC(=O)Nc1cc(N(C)C)nc2ccccc12
- AC50 [3]: 26.9 µM (active)
